What is called inhibition is the relative decrease from the control value, in per cent. Low values mean a response near the control, high ones a response far below the control.

Marks after values point to notes of the source that are not given here.

Test [1] concerns the target T1, Porcine Pancreatic Lipase (Sus scrofa, UniProt P00591).
T1 sequence (P00591 1-450): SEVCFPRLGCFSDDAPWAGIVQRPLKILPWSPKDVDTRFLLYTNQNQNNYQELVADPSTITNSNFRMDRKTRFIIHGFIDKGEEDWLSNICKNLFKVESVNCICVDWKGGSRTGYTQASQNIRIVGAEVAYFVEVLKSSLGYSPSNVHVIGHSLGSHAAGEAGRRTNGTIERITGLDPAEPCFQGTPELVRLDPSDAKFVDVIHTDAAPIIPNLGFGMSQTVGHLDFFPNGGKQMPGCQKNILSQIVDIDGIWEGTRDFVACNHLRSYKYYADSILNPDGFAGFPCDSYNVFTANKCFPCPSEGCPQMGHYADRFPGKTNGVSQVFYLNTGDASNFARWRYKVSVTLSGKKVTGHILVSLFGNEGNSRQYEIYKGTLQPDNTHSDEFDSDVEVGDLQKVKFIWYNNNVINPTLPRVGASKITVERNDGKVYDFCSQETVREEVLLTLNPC
Description: Anti-lipase assay (triolein emulsion). It is filed as biochemical. Particulars: Sample Concentration: 1.2 mg/ml; 37 °C, 30 min. The procedure: A suspension containing 1% (V/V) of triolein and 1% (V/V) of tween 40 in 0.1M phosphate buffer (pH-8) was prepared and emulsified. The assay was initiated by adding 800µl of the Triolein emulsion to 200µl of Porcine Pancreatic Lipase (0.5 g Pancreatic Lipase in 15 ml of 0.1 M phosphate buffer at pH-8) and 200 µl of the HC extract (100 µg/ml concentration). The resultant mixture was mixed and the absorbance was measured immediately at 450 nm (T^0). The mixtures were then incubated at 37 °C for 30 min and the absorption was measured at 450 nm (T^30). Inhibition % = {A(cont)−A(test) × 100; A(cont)} [formula] where: • A(cont) - is the absorbance of the control (TC^0-TC^30) • A(test) - is the absorbance of the sample test /standard (T^0-T^30) (the HC, mangiferin and quercetin)

A further test relates to high fat diet fed rats. In words: Anti-obesity activity in high fat diet fed rats. It is filed as in vivo, Male Wistar rats. The following applies: male rats, Orlistat 30 mg/kg (Group III). On the procedure: Objective: The objective was to investigate the effect of the HC against high fat diet fed rats. Animals: Male Wistar rats (160 to 200 g); No of animals: 36; Housing: 3/ cage, 12 hrs light/dark cycle; Temperature: 25±2°c; Model & Composition of the Diet: High fat diet in rats: 25% Lard, 5% Soyabean oil; 5% starch; 65% Normal commercial available rat feed; Groups: Male Wistar rats were divided into six groups with six animals in each group [table]

Test [2] is described as follows: Hydrogen peroxide (H2O2) scavenging activity. It is filed as biochemical. On the procedure: Hydrogen peroxide scavenging activity of the HC was estimated in this study where initially, HC solutions were prepared at different concentrations in distilled water and the resultant solutions were mixed in 0.6 ml of 40 mM H2O2 solution prepared in phosphate buffer (0.1 M pH 7.4) and incubated for 10 min. The absorbance was measured at 230 nm against a blank solution containing H2O2. Similar procedure was repeated for HC, Mangiferin and Quercetin. The amount of hydrogen peroxide radical inhibited was calculated using the following equation. The result is expressed as % H2O2 radical scavenging activity. H2 O2 radical scavenging activity = {(Abs control−Abs sample) × 100; (Abs control)} [formula] where: • Abs control - Absorbance of H2O2 radical • Abs sample - Absorbance of sample extract/ standard (the HC, mangiferin and quercetin)

Test [3] in a line: Superoxide Dismutase (SOD) activity / superoxide anion scavenging (NBT/NADH/PMS). The following applies: 100 µg/ml (method). It is filed as biochemical. On the procedure:
The superoxide anion scavenging activity of the HC was measured in this test. 1 ml (156 µM) of Nitro blue tetrazolium (NBT), 1 ml (468 µM) of nicotinamide adenine dinucleotide (NADH) and 3 ml of the HC at 100 µg/ml concentration were admixed in phosphate buffer (pH 7.4). The reaction was started by adding 100 µl of phenazine methosulfate (PMS) (0.18mg/ml) and the mixture was incubated at 25°C for 5 min followed by measuring the absorbance at 560 nm. Similar solutions were prepared for quercetin and mangiferin and the percentage of inhibition was calculated by using the formula provided herein-below; the result was expressed as % superoxide dismutase scavenging activity. % superoxide dismutase inhibition = {(Abs control−Abs sample) × 100; Abs control} [formula] where: • Abs control - Absorbance of control • Abs sample - Absorbance of sample extract/ standard (the HC, mangiferin and quercetin)

Test [4] can be described thus: Lipid peroxidation inhibitory assay (TBARS). It is filed as biochemical. Particulars: Sample Concentration: 100-500µ g/ml. On the procedure: A modified Thiobarbituric acid reactive species (TBARS) assay (Ohkowa et al., 1979) is used to measure lipid peroxidation formed using egg yolk homogenate as lipid rich media (Ruberto et al., 2000).
Take 0.5ml of egg homogenate (10%in distilled water) and 0.1 ml of test sample in the concentration range 100-500µ g/ml in a test tube and volume made up to 1 ml by adding distilled water. Finally add 0.05 ml ferrous sulphate (0.07M) to the above mixture and incubate for 30 min to induce the lipid peroxidation. Thereafter add 1.5 ml of 20% acetic acid (pH 3.5) and 1.5 ml of (0.8%in 1.1% SDS) TBA and 0.05 ml (20%) TCA then heated in boiling water bath for 60 min. After cooling 5 ml of butanol will be added to all the test tubes and centrifuged at 3000 rpm for 10 min. Measure the absorbance of the organic upper layer at 532 nm. The percentage inhibition of lipid peroxidation calculated from the formula, % Inhibition = ((Abcontrol−Abtest sample)*100)/(Abcontrol) [formula] where: • Ab (cont) - is the absorbance of the control • Ab (test sample) - is the absorbance of the test sample /standard Table 12 Lipid peroxidation inhibitory assay test results

In turn, `O=c1c2cc(O)c(O)cc2oc2cc(O)c([C@@H]3O[C@H](CO)[C@@H](O)[C@H](O)[C@H]3O)c(O)c12` [Mangiferin 98%, Mangiferin] came in with an inhibition at 1200 µg/mL in test [1] of 41.8%.

`CCCCCCCCCCC[C@@H](C[C@@H]1OC(=O)[C@H]1CCCCCC)OC(=O)[C@H](CC(C)C)NC=O` [Orlistat] gave an inhibition at 1200 µg/mL in test [1] of 75.3%. Moreover, in the test on high fat diet fed rats (baseline, in g (unit assumed)), the Initial weight came out at 182.00±0.96. Further, in the test on high fat diet fed rats, the “Atherogenic Index” value is on record as 1.39±0.15***^b, the Average food intake was 13.45±0.28^nsb g/rat, the BAT is recorded as 0.28± 0.01^nsb and the “Difference in body weight gain” value is 79.82±2.58***^b. Further, in the test with high fat diet fed rats, the “Epididymal fat pad Left” value is 0.52± 0.03^nsb, the “Epididymal fat pad Right” value was 0.55± 0.02^nsb, the “Fecal fatty acid estimation” value is recorded as 4.1±0.26*^b and the Insulin is recorded as 0.15±0.005^nsb mU/L. Further, in the test with high fat diet fed rats, the “Liver (organ weight)” value is listed as 2.8±0.08 ***^b, the Liver triglycerides was 87.77±2.28*^b, the Mesenteric fat is 1.02±0.07 ^nsb and the “Perirenal fat pad tissue Left” value is reported as 0.77± 0.08*^b. In the test on high fat diet fed rats, the “Perirenal fat pad tissue Right” value is listed as 0.77±0.08*^b and the “serum Glucose” value is listed as 92.00±2.89**^b mg/dL. For the same compound, the Final weight in the test on high fat diet fed rats (in g (unit assumed)) amounted to 261.80±2.53. Also, in the test on high fat diet fed rats (serum), the HDL-c was 21.72±1.22**^b mg/dL, the LDL-c is on record as 13.20±1.71**^b mg/dL, the Total cholesterol is given as 50.91±0.62***^b mg/dL and the Triglyceride was 79.96±1.13***^b mg/dL.

Take `O=c1c(O)c(-c2ccc(O)c(O)c2)oc2cc(O)cc(O)c12` [Quercetin (Standard), Quercetin]: the H2O2 scavenging activity in test [2] (10 µg/ml) amounted to 5.6%; in test [2] (20 µg/ml), 14.55%; in test [2] (30 µg/ml), 18.86%; in test [2] (40 µg/ml), 33.96%. Also, the “SOD activity % Inhibition” value in test [3] worked out at 51.03%. The “Lipid peroxidation inhibitory assay % inhibition” value in test [4] was determined as 53.44%.

The record behind these values is patent EP3009138B1, “MANGIFERA EXTRACT FOR THE MANAGEMENT OF OBESITY AND/OR WEIGHT” (Kodimule, Shyam Prasad, priority 2014, dated 2016).
